We go through eight compounds from patent publication US20240398801A1, “TREATMENT OF LEUKEMIA BASED ON LEUKEMIA HIERARCHY IN A PATIENT” (UNIVERSITY HEALTH NETWORK, priority 2021, published 2024).

The subject of one experiment is human AML cells. Put plainly: Changes in cell type composition after drug treatment (deconvolution of RNA-seq from preclinical studies). In kind it is cell-based. The source says: To identify RNA-seq datasets collected from AML samples before and after drug treatment, Applying the search terms “Acute Myeloid Leukemia” and “AML” with the “Homo sapien” and “RNA-sequencing” flags on Gene Expression Omnibus (GEO) and ArrayExpress, we identified 95 datasets posted before Jun. 17, 2021. From these, 53 were inhibitors that met the inclusion criteria of human AML samples with available RNA-sequencing data collected before and after drug treatment. Datasets with only differential expression results or Bigwig files were excluded. Datasets with less than three samples in each treatment group were also excluded, resulting in a total of 47 datasets included in the final analysis. Each dataset was processed and underwent TPM normalization and deconvolution with CIBERSORTx using a signature matrix of seven malignant cell types (LSPC-Quiescent, LSPC-Primed, LSPC-Cycle, GMP-like, ProMono-like, Mono-like, cDC-like). For quality control among cell line samples, the deconvolution correlation values from each sample across every dataset were compared and the jenks natural breaks algorithm was employed to identify cutoffs demarcating low, medium, and high correlation bins. Cell line samples classified as “low-correlation” with a correlation value below 0.437 were excluded from further analysis, leaving 42 datasets spanning 153 treatment conditions.
Relative changes in cell type abundance in each treatment condition were evaluated using Wilcoxon rank-sum tests for technical replicates or Wilcoxon signed-rank tests for biological replicates with paired treatment conditions. For dimensionality reduction with UMAP, we focused exclusively on changes in cell type abundance where the p-value was <0.05 to emphasize the key changes in cell type composition induced by each drug, resulting in 125 treatment conditions spanning 38 studies. Absolute log p-values were used to represent the magnitude of shift in cell type abundance, and cell type changes where p>0.05 were assigned a magnitude of zero. […]

Another experiment has as its system AML engraftment. The experiment in a line: Patient-derived xenograft (PDX) response of AML patient samples to fedratinib, CC-90009 or their combination. As to conditions: for response rate: PDX. In kind it is in vivo, NOD.SCID mice. The method, then: Using normalized malignant cell type composition data for 46 patient samples used for in vivo fedratinib or CC-90009 treatment, dimensionality reduction was performed and clustering was assigned using the leiden algorithm with a resolution of 0.7, yielding three clusters: Primitive, Mature, Intermediate/GMP. […] Samples were subsequently projected on the reference map for visualization and confirmation of cluster assignments.
Patient samples were classified into response categories by comparing the relative reduction (RR) of AML engraftment in drug-treated mice versus vehicle-treated mice, as per Galkin et al 98. RR was calculated as: ((mean % engraftment in control mice)−(mean % engraftment in drug treated mice))/(mean % engraftment in control mice). Patient samples were classified as Responders if RR in the injected femur (Right Femur, RF) was >50%, classified as Partial Responders if we observed 20 to 50% RR in the RF or >20% in the non-injected femur (Bone Marrow, BM) only, and classified as Non-Responders if there was no statistically significant difference in engraftment levels between control- and drug-treated mice, or if RR was <20% in both RF and BM.
Samples with unknown NPM1 mutation status were subsequently assigned as NPM1 mutant or NPM1 wild-type according to their cluster membership.
NOD.SCID mice were bred and housed in the University Health Network (UHN) animal care facility and all animal experiments were performed in accordance with guidelines approved by the UHN animal care committee. Ten-week-old NOD.SCID mice were irradiated (225 cGy) and pretreated with anti-CD122 antibody (200 μg per mouse), 24 hours prior to transplantation. Viably frozen mononucleated cells from AML patients were thawed, counted, and intrafemorally injected at the dose of 5 million cells per mouse. At day 21 post transplantation, treatment of either CC-90009 or Fedratinib alone with vehicle, or in combination, was initiated twice a day for 2 weeks. CC-90009 was given by intraperitoneal (IP) injections at the dose of 2.5 mg/kg and Fedratinib was dissolved in 0.5% methylcellulose and orally gavaged at 60 mg/kg. Following treatment, levels of AML engraftment were assessed to determine the efficacy of drug treatment against the disease in the mice. Cells collected from the injected right femur, non-injected bone marrow of each individual mouse were stained with human specific antibodies and evaluated by flow cytometry. Antibodies used for assessment of human AML engraftment include: CD45-APC, CD33-PE-Cy5, CD19-V450, CD34-APC-Cy7, CD15-FITC (BD), CD33-PE-Cy5, and CD14-PE (Beckman Coulter).

The test system of experiment [1] is primary AML samples. The experiment in a line: Association of LinClass-7 / LSC17 score with ex vivo drug sensitivity in primary AML drug screens. The experiment is classed as cell-based, human. As to the method:
Ex vivo drug response in BEAT-AML samples was measured through the Area Under the dose-response Curve (AUC) metric, wherein a low AUC corresponds to sensitivity while a high AUC corresponds to resistance. AUC values were scaled and multiplied by −1 to represent sensitivity in each treatment condition. Pearson correlation was used to measure association between cell type abundance and drug sensitivities, following recommendations from a benchmarking study by Smirnov et al^97. Associations were depicted using the R package “corrplot”, and drug sensitivity volcano plots were generated using the R package “EnhancedVolcano”. For associations of cell type abundance with clinical and biological features, absolute cell type abundance was always used and pearson correlations were calculated unless otherwise specified.
To derive the LinClass-7 score, logCPM-normalized expression of 16 genes from the LSC17 assay were used as input features for LASSO regression: DNMT3B, GPR56, NGFRAP1, CD34, DPYSL3, SOCS2, MMRN1, KIAA0125, EMP1, NYNRIN, LAPTM4B, CDK6, AKR1C3, ZBTB46, CPXM1, ARHGAP22. The 17th gene, C19orf77, was excluded due to lack of expression data in the Leucegene cohort. LASSO regression was performed on negative PC2 (high in Primitive and low in Mature) with leave-one-out cross validation using the LassoCV function from scikit-learn with a path length of 0.1. Patients from TCGA and Leucegene were combined into a training set, and patients from BEAT-AML were used as a validation set to evaluate the strength of the association between LinClass-7 and PC2.

In experiment [2] the test system is primary AML samples. The experiment in a line: Selinexor in vivo treatment of primary AML samples, cell type abundance by RNA-seq deconvolution. Details: species or system NSG mice. Conditions: primary AML samples treated in vivo. The method, then:
RNA was extracted from bulk peripheral blood mononuclear cells using an RNeasy Micro Kit (Qiagen). Libraries were constructed using SMART-Seq (Clonetec). A paired-end 50-base-pair flow-cell lane Illumina HiSeq 2000 yielded an average of 240 million aligned reads per sample. To align RNA-seq reads from samples used in selinexor and fedratinib treatments, Illumina paired-end sequence data were analyzed with BWA/v0.6 alignment software with option (-s) to disable Smith-Waterman alignment. Reads were mapped onto GRCh37-lite reference genome and exon-exon junction reference whose coordinates were defined based on transcript annotations in Ensembl/v59. Reads with mapping quality <10 were discarded and duplicate reads were tagged using the Picard's MarkDuplicates program. JAGuaR 2.1 was used to incorporate reads spanning multiple exons into the alignment by introducing large alignment gaps. All transcripts of a given gene were collapsed into a single gene model such that exonic bases were the union of exonic bases that belonged to all known transcripts of the gene. Read counts and subsequently RPKM counts were obtained by counting the fraction of each read that overlapped with an exonic region for that gene. To align RNA-seq reads from functionally annotated LSC fractions, sequence data was aligned against GRCh38 and transcript sequences downloaded from Ensembl build 90 using STAR 2.5.2a. […]

The next experiment deals with AML. The experiment in a line: Subgroup analysis of the ALFA-0701 trial by LinClass-7 score. In kind it is in vivo, human.
The mark [3] stands for this setting: AMLs with Intermediate/GMP hierarchies.
Setting [4] is: AMLs with Primitive hierarchies.
Where [5] appears, read: added to standard chemotherapy vs chemotherapy alone, LinClass-7 low (mature) AML.

For `CC1=C(/C=C/C(C)=C/C=C/C(C)=C/C(=O)O)C(C)(C)CCC1` [ATRA], the “blast population from which differentiation is induced” value in the experiment on human AML cells is “predominantly from GMP-like blasts”.

Regarding `Cc1c(-c2ccc(-c3ccccc3F)cc2)nc2ccc(F)cc2c1C(=O)O` [Brequinar], the “Quiescent LSPC abundance after treatment” value with human AML cells (accompanying induced differentiation) is reported as “reduction”.

Consider `O=C1CCC(N2Cc3cc(CNC(=O)C(F)(F)c4ccc(Cl)cc4)ccc3C2=O)C(=O)N1` (stereo not drawn) [CC-90009], for which the response rate in the experiment with AML engraftment (setting [3]) is 83%; with AML engraftment (AMLs with Mature hierarchies), 88%; in the experiment with AML engraftment (setting [4]), 40%. In addition, the “response among Primitive AMLs” value with AML engraftment (Primitive AMLs lacking NPM1c mutation and ETC signatures) is on record as “favorable response”; in the experiment with AML engraftment (Primitive AMLs with NPM1c mutations and electron transport chain signatures), “poor response”.

Consider `FC(F)(F)c1ccc(/C=C/c2nc(COc3ccc(CCCCn4ccnn4)cc3)co2)cc1` [Mubritinib], for which, in the experiment on primary AML samples [1] (drug screens of Tyner et al and Lee et al), the “blasts targeted, from correlation of LinClass-7 score with drug sensitivity” value is reported as “primitive blasts”. The “difference in ex vivo sensitivity between patient samples with high and low score” value in the experiment with primary AML samples [1] (split by LSC17) is “no significant difference”; in the experiment on primary AML samples [1] (split by LinClass-7), “stark differences”.

Take `CC1(C)CCC(c2ccc(Cl)cc2)=C(CN2CCN(c3ccc(C(=O)NS(=O)(=O)c4ccc(N[C@H](CCN5CCOCC5)CSc5ccccc5)c(S(=O)(=O)C(F)(F)F)c4)cc3)CC2)C1` [Navitoclax]: the “difference in ex vivo sensitivity between patient samples with high and low score” value with primary AML samples [1] (split by LSC17) was “no significant difference”; with primary AML samples [1] (split by LinClass-7), “stark differences”.

`O=C(/C=C\n1cnc(-c2cc(C(F)(F)F)cc(C(F)(F)F)c2)n1)NNc1cnccn1` [Selinexor]: the “Cycling LSPC population after treatment” value in the experiment with human AML cells (primary AML samples treated in vitro) and in the experiment on primary AML samples [2] was “depletion” throughout.

With `Cc1cnc(Nc2ccc(OCCN3CCCC3)cc2)nc1Nc1cccc(S(=O)(=O)NC(C)(C)C)c1` [fedratinib], the response rate came to 20% in the experiment with AML engraftment (setting [3]), 88% with AML engraftment (AMLs with Mature hierarchies) and 46% in the experiment on AML engraftment (setting [4]).

On to Gemtuzumab Ozogamicin [GO], for which, in the experiment with AML (setting [5]), the event-free survival entry is reported as “significantly longer” and the relapse-free survival entry is on record as “significantly longer”. The survival benefit result in the experiment on AML (added to standard chemotherapy, LinClass-7 high primitive AML) is “no significant survival benefit”. Further, the overall survival result with AML (added to standard chemotherapy, LinClass-7 low (mature) AML) is “did not extend”.
